Data as given in the supplement of paper PMC10307832.

How the values were obtained:
Test in all cases: relative viability (nuclei count vs DMSO), 5 days (fraction); higher = more cells survive
[1] = compound: CCN1C(=O)C2=CC(=C(N=C2N(C1=O)C3CC3)N)C(=O)N + CC(=O)Nc1cccc(-n2c(=O)n(C3CC3)c(=O)c3c(Nc4ccc(I)cc4F)n(C)c(=O)c(C)c32)c1 [Trametinib] (partner 0.02 µM)
How it was run: (§1)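 A single step with final 0.05% Triton X-100, 1% formaldehyde and 1 ug/ml Hoechst fixed the cells and stained nuclei 5 days after treatment. Lung cancer cell lines in 1536-well plates had been treated by pin tool the day after seeding with one drug alone or a fixed anchor-drug dose plus five library-drug doses (not always all listed) in √10 steps, and nuclei were counted on 4× images. Relative viability is the ratio of nuclei in treated wells to nuclei in vehicle wells, taken as the median of duplicate plates.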

[2] = compound: CCN1C(=O)C2=CC(=C(N=C2N(C1=O)C3CC3)N)C(=O)N + NC(=O)Nc1cc(-c2cccc(F)c2)sc1C(=O)N[C@H]1CCCNC1 [AZD7762] (partner 0.2 µM)
How it was run: as §1

[3] = compound: CCN1C(=O)C2=CC(=C(N=C2N(C1=O)C3CC3)N)C(=O)N + CCNC(=O)c1noc(-c2cc(C(C)C)c(O)cc2O)c1-c1ccc(CN2CCOCC2)cc1 [Luminespib] (partner 0.01 µM)
How it was run: as §1

[4] = compound: CCN1C(=O)C2=CC(=C(N=C2N(C1=O)C3CC3)N)C(=O)N + CC1(C)CCC(c2ccc(Cl)cc2)=C(CN2CCN(c3ccc(C(=O)NS(=O)(=O)c4ccc(N[C@H](CCN5CCOCC5)CSc5ccccc5)c(S(=O)(=O)C(F)(F)F)c4)cc3)CC2)C1 [Navitoclax] (partner 0.5 µM)
How it was run: as §1

[5] = compound: CCN1C(=O)C2=CC(=C(N=C2N(C1=O)C3CC3)N)C(=O)N + Nc1ncn([C@H]2C[C@H](O)[C@@H](CO)O2)c(=O)n1 [Decitabine] (partner 2 µM)
How it was run: as §1

| Cell Line | relative viability ([1]; first compound 0.253 µM) | relative viability ([1]; first compound 0.8 µM) | relative viability ([1]; first compound 2.53 µM) | relative viability ([1]; first compound 8 µM) | relative viability ([2]; first compound 0.253 µM) | relative viability ([2]; first compound 0.8 µM) | relative viability ([2]; first compound 2.53 µM) | relative viability ([2]; first compound 8 µM) | relative viability ([3]; first compound 0.253 µM) | relative viability ([3]; first compound 0.8 µM) | relative viability ([3]; first compound 2.53 µM) | relative viability ([3]; first compound 8 µM) | relative viability ([4]; first compound 0.253 µM) | relative viability ([4]; first compound 0.8 µM) | relative viability ([4]; first compound 2.53 µM) | relative viability ([4]; first compound 8 µM) | relative viability ([5]; first compound 0.253 µM) | relative viability ([5]; first compound 0.8 µM) | relative viability ([5]; first compound 2.53 µM) | relative viability ([5]; first compound 8 µM) |
| --- | --- | --- | --- | --- | --- | --- | --- | --- | --- | --- | --- | --- | --- | --- | --- | --- | --- | --- | --- | --- |
| 201T | 0.744 | 0.702 | 0.686 | 0.724 | 0.609 | 0.677 | 0.64 | 0.615 | 1.06 | 1.04 | 1.02 | 1.08 | 1.26 | 1.21 | 1.14 | 1.22 | 0.866 | 0.81 | 0.814 | 0.844 |
| A549 |  |  |  |  |  |  |  |  |  |  |  |  | 1.14 | 1.13 | 1.22 | 1.16 | 0.215 | 0.341 | 0.218 | 0.11 |
| A-427 | 0.827 | 0.7 | 0.7 | 0.767 | 0.73 | 0.791 | 0.731 | 0.789 | 1.13 | 1.26 | 1.24 | 1.13 | 0.994 | 0.965 | 0.95 | 0.98 | 0.552 | 0.537 | 0.521 | 0.563 |
| ABC-1 |  |  |  |  | 0.479 |  | 1.15 | 0.954 | 0.869 | 0.4 | 0.639 | 0.518 |  |  |  |  | 0.996 |  | 1.17 | 1.05 |
| BEN | 0.915 | 0.937 | 1.11 | 1.05 | 0.789 | 0.568 | 0.864 | 0.689 | 0.469 | 0.427 | 0.377 | 0.351 | 0.074 | 0.0565 | 0.0783 | 0.0841 | 0.814 | 0.675 | 0.734 | 0.657 |
| CAL-12T | 0.42 | 0.354 | 0.386 | 0.328 | 0.619 | 0.479 | 0.664 | 0.567 | 0.294 | 0.792 | 0.193 | 0.436 | 1.14 | 1.1 | 1.06 | 1.2 |  |  |  |  |
| COR-L23 | 0.581 | 0.584 | 0.591 | 0.592 |  |  |  |  | 0.697 | 0.653 | 0.657 | 0.765 | 1.05 | 0.939 | 1.03 | 1.04 | 0.442 | 0.467 | 0.428 | 0.375 |
| COR-L 105 | 0.478 | 0.428 | 0.378 | 0.47 |  |  |  |  | 0.807 | 0.737 | 0.623 | 0.641 | 0.847 | 0.74 | 0.586 | 0.794 | 0.712 | 0.657 | 0.597 | 0.785 |
| ChaGo-K-1 | 0.922 | 0.951 | 0.861 | 0.875 | 0.873 | 0.863 | 0.89 | 0.872 | 0.541 | 0.508 | 0.636 | 0.53 | 1.05 | 0.782 | 1.11 | 0.958 | 0.529 | 0.555 | 0.489 | 0.449 |
| EKVX | 0.378 | 0.359 | 0.372 | 0.371 | 0.824 | 0.701 | 0.749 | 0.698 | 0.94 | 0.952 | 0.772 | 0.722 | 0.929 | 0.897 | 0.952 | 0.989 | 0.352 | 0.33 | 0.352 | 0.296 |
| EMC-BAC-2 | 0.871 |  | 0.766 | 0.9 | 1.18 |  | 1.04 | 1.14 | 1.29 | 1.08 | 1.03 | 1.19 | 1.2 | 1.17 | 1.18 | 1.32 | 1.05 |  | 0.89 | 0.94 |
| EPLC-272H | 0.261 | 0.239 | 0.327 | 0.298 | 0.229 | 0.206 | 0.278 | 0.193 | 0.253 | 0.227 | 0.465 | 0.445 | 0.994 | 1.26 | 1.13 | 1.2 | 0.362 | 0.376 | 0.399 | 0.379 |
| H3255 | 0.587 | 0.578 | 0.567 | 0.636 | 0.884 | 0.922 | 0.919 | 0.832 | 0.834 | 0.773 | 0.883 | 0.932 | 0.625 | 0.509 | 0.617 | 0.559 | 0.582 | 0.582 | 0.61 | 0.604 |
| HARA | 0.513 | 0.914 | 0.56 | 0.545 | 0.661 | 0.304 | 0.296 | 0.315 | 0.706 | 0.671 | 0.843 | 0.929 | 1.15 | 1.13 | 1.08 | 1.12 | 0.473 | 0.587 | 0.402 | 0.721 |
| HCC-15 | 0.412 | 0.382 | 0.369 | 0.429 | 1.18 | 1.45 | 1.18 | 1.31 | 0.231 | 0.7 | 0.395 | 0.452 | 0.692 | 0.753 | 0.683 | 0.69 | 0.596 | 0.663 | 0.624 | 0.603 |
| HCC-44 | 1.18 | 0.975 | 1.06 | 1.04 | 1.03 | 0.993 | 0.977 | 0.991 | 0.934 | 0.905 | 1.17 | 1.04 | 1.04 | 0.994 | 0.985 | 1.02 | 0.999 | 0.999 | 0.885 | 0.872 |
| HCC-78 | 0.706 | 0.733 | 0.812 | 0.788 | 0.56 | 0.592 | 0.626 | 0.735 |  |  |  |  | 0.436 | 0.788 | 0.691 | 0.94 | 0.681 | 0.636 | 0.726 | 0.639 |
| HCC-366 | 0.416 | 0.433 | 0.348 | 0.343 | 0.395 | 0.312 | 0.41 | 0.231 |  |  |  |  | 0.985 | 0.991 | 1.1 | 1.05 | 0.294 | 0.346 | 0.341 | 0.284 |
